Patent EP1457483A1, “Cationic lipids with serine backbone” (Ruhr-Universität Bochum, priority 2003, dated 2004)

System: COS-7 cells
Test: Automated lipofection screening: GFP-luciferase reporter gene transfer (luciferase activity per protein content)
Type: cell-based, African green monkey
Details: for Maximum transfection efficiency, MW (mean value), Helper lipid: DOPE / Maximum transfection efficiency, MW (mean value), Helper lipid: CHOL / Maximum transfection efficiency, MW (mean value), Helper lipid: without: pEGFPLuc plasmid, point is thousands separator; for Maximum transfection efficiency, MW (mean value), Helper lipid: DOPE: cationic/helper lipid 1:0.5 with DOPE; for Maximum transfection efficiency, MW (mean value), Helper lipid: DOPE / Maximum transfection efficiency, MW (mean value), Helper lipid: CHOL: at the LDR giving the maximum; for Maximum transfection efficiency, MW (mean value), Helper lipid: CHOL: cationic/helper lipid 1:0.5 with cholesterol; for Maximum transfection efficiency, MW (mean value), Helper lipid: without: no helper lipid, at the LDR (1:1-15:1) giving the maximum
Description: Screening the combinatorial lipid library for lipofection properties: Goal of this first step was to compare transfection efficiency of these structurally related cationic lipids with systematically modified hydrocarbon chain compositions for the development of suitable lipofection reagents and protocols and to study the relationship between structure and transfection efficiency of this new class of cationic lipids for gene transfer. All lipids (MS-1 to MS-50, table 1) were tested using a standard protocol: From each lipid, twenty four different lipoplexes were formed containing either no helper lipid or the helper lipids DOPE and CHOL at molar amounts (1:0.5), respectively, using eight different lipid:DNA-charge ratios (LDR) from 1:1 - 15:1, resulting in a lipofection profile for each lipid. The COS-7 cell-line was used for this lipofection study since COS-7 is easy to transfect and differences between the lipids are easy to identify.
Cell culture: SV40 transformed African green monkey kidney cell line COS-7 (ATCC CRL-1651) was routinely passaged in DMEM (GIBCO BRL, Karlsruhe, Germany), respectively, supplemented with 1% L-glutamin solution (100x), 1% Penicillin/Streptomycin solution (100x) (GIBCO BRL, Karlsruhe, Germany), and 10% FCS (BioWhittaker, Verviers, Belgium) at 37°C with 5% CO2 in humidified atmosphere. For the screening cells were maintained in 96-well culture plates (Greiner, Frickenhausen, Germany) in 100 µl DMEM, 10 % FCS, 1 % Penicillin-streptomycin in a humidified atmosphere at 37 °C/5 % CO2. 24 h prior to transfection, the cells were seeded into the microtiter plate at 10,000 cells per well to reach a confluency of 50 % at the time of transfection. Dendritic cells: Dendritic cells (DC) were derived from highly purified circulating CD14(+) monocytes: In a first step, peripheral blood mononuclear leukocytes (PBL) from healthy control persons were isolated by Ficoll-Paque (Pharmacia Biotech AB, Uppsala, Sweden) density centrifugation. The following immunomagnetic purification of the monocytes from PBL was performed using CD14 Microbeads and MiniMACS high gradient magnetic separation columns (Miltenyi Biotech, Bergisch Gladbach, Germany) according to manufacturer's instructions. Isolated monocytes (5 x 10^5/well) were cultured in RPMI supplemented with 10 % FCS, or serum-free Macrophage-SFM medium (GIBCO BRL, Karlsruhe, Germany) supplemented with human recombinant GM-CSF (0.05µg/ml) and IL-4 (0.025µg/ml) (PromoCell, Heidelberg, Germany) in 6-well plates. Aliquots of the cells were reanalyzed by FACS with anti-CD14 mAbs (Pharmingen, San Diego, CA). After 5-6 days non-adherent cells were collected and purity of DCs was determined by FACS analysis using a FACSort flow cytometer (Becton Dickinson, Mountain View, CA) and the CellQuest software for data processing as recently described (Jantscheff, P. et al., J. Immunol. Methods 163(1):91-7 (1993)).

For `CCCCCCCCCCCCCCCC[N+](C)(CCCCCCCCCCCCCCCC)[C@@H](CO)C(=O)NCCCN` [compound 33], the “Maximum transfection efficiency, MW (mean value), Helper lipid: DOPE” value (shortened to “Maximum transfection efficiency, MW … DOPE”) was 201.586 RLU, the “Maximum transfection efficiency, MW (mean value), Helper lipid: CHOL” value (“Maximum transfection efficiency, MW … CHOL” for short) was 372.446 RLU and the “Maximum transfection efficiency, MW (mean value), Helper lipid: without” value (“Maximum transfection efficiency, MW … without” below) was 49.603 RLU.
With `CCCCCCCCCCCCCCCCCC[N+](C)(CCCCCCCCCCCCCCCCCC)[C@@H](CO)C(=O)NCCN` [compound 29] the “Maximum transfection efficiency, MW … DOPE” value was 24.095 RLU, the “Maximum transfection efficiency, MW … CHOL” value was 137.404 RLU and the “Maximum transfection efficiency, MW … without” value was 43.875 RLU.
`CCCCCCCCCCCCCCCCN(CCCCCCCCCCCCCCCC)[C@@H](CO)C(=O)NCCCCCN` [compound 18] was tested, and the “Maximum transfection efficiency, MW … DOPE” value was 26.400 RLU, the “Maximum transfection efficiency, MW … CHOL” value was 42.592 RLU and the “Maximum transfection efficiency, MW … without” value was 22.150 RLU.
With `CCCCCCCCCCCCCCCCCCN(CCCCCCCCCCCCCCCCCC)[C@@H](CO)C(=O)NCCCN` [compound 9] the “Maximum transfection efficiency, MW … DOPE” value was 10.033 RLU, the “Maximum transfection efficiency, MW … CHOL” value was 76.850 RLU and the “Maximum transfection efficiency, MW … without” value was 2.183 RLU.
For `CCCCCCCC/C=C\CCCCCCCCN(CCCCCCCC/C=C\CCCCCCCC)[C@@H](CO)C(=O)NCCCCCCN` [compound 25], the “Maximum transfection efficiency, MW … DOPE” value was 44.451 RLU, the “Maximum transfection efficiency, MW … CHOL” value was 12.225 RLU and the “Maximum transfection efficiency, MW … without” value was 23.710 RLU.
`CCCCCCCC/C=C\CCCCCCCCN(CCCCCCCC/C=C\CCCCCCCC)[C@@H](CO)C(=O)NCCCN` [compound 10] was tested, and the “Maximum transfection efficiency, MW … DOPE” value was 92.769 RLU, the “Maximum transfection efficiency, MW … CHOL” value was 28.835 RLU and the “Maximum transfection efficiency, MW … without” value was 13.461 RLU.
In the case of `CCCCCCCCCCCCCC[N+](C)(CCCCCCCCCCCCCC)[C@@H](CO)C(=O)NCCCN` [compound 32], the “Maximum transfection efficiency, MW … DOPE” value is reported as 225.268 RLU, the “Maximum transfection efficiency, MW … CHOL” value is reported as 447.443 RLU and the “Maximum transfection efficiency, MW … without” value is reported as 2.075 RLU.
With `CCCCCCCCCCCCCCN(CCCCCCCCCCCCCC)[C@@H](CO)C(=O)NCCCCCCN` [compound 22] the “Maximum transfection efficiency, MW … DOPE” value was 164.165 RLU, the “Maximum transfection efficiency, MW … CHOL” value was 241.264 RLU and the “Maximum transfection efficiency, MW … without” value was 237.631 RLU.
With `CCCCCCCCCCCC[N+](C)(CCCCCCCCCCCC)[C@@H](CO)C(=O)NCCCCN` [compound 36] the “Maximum transfection efficiency, MW … DOPE” value was 26.495 RLU, the “Maximum transfection efficiency, MW … CHOL” value was 3.829 RLU and the “Maximum transfection efficiency, MW … without” value was 2.064 RLU.
`CCCCCCCCCCCCCC[N+](C)(CCCCCCCCCCCCCC)[C@@H](CO)C(=O)NCCCCCN` [compound 42] was tested, and the “Maximum transfection efficiency, MW … DOPE” value was 72.349 RLU, the “Maximum transfection efficiency, MW … CHOL” value was 181.719 RLU and the “Maximum transfection efficiency, MW … without” value was 832 RLU.
In the case of `CCCCCCCCCCCCN(CCCCCCCCCCCC)[C@@H](CO)C(=O)NCCCCCCN` [compound 21], the “Maximum transfection efficiency, MW … DOPE” value is reported as 308.849 RLU, the “Maximum transfection efficiency, MW … CHOL” value is reported as 190.171 RLU and the “Maximum transfection efficiency, MW … without” value is reported as 118.131 RLU.
With `CCCCCCCCCCCC[N+](C)(CCCCCCCCCCCC)[C@@H](CO)C(=O)NCCCCCN` [compound 41] the “Maximum transfection efficiency, MW … DOPE” value was 1.535 RLU, the “Maximum transfection efficiency, MW … CHOL” value was 923 RLU and the “Maximum transfection efficiency, MW … without” value was 946 RLU.
`CCCCCCCC/C=C\CCCCCCCC[N+](C)(CCCCCCCC/C=C\CCCCCCCC)[C@@H](CO)C(=O)NCCCCCN` [compound 45] was tested, and the “Maximum transfection efficiency, MW … DOPE” value was 69.821 RLU, the “Maximum transfection efficiency, MW … CHOL” value was 64.111 RLU and the “Maximum transfection efficiency, MW … without” value was 14.092 RLU.
In the case of `CCCCCCCCCCCCCCCCCC[N+](C)(CCCCCCCCCCCCCCCCCC)[C@@H](CO)C(=O)NCCCCCCN` [compound 49], the “Maximum transfection efficiency, MW … DOPE” value is reported as 7.563 RLU, the “Maximum transfection efficiency, MW … CHOL” value is reported as 10.245 RLU and the “Maximum transfection efficiency, MW … without” value is reported as 2.177 RLU.
For `CCCCCCCCCCCCCCCCN(CCCCCCCCCCCCCCCC)[C@@H](CO)C(=O)NCCN` [compound 3], the “Maximum transfection efficiency, MW … DOPE” value was 18.255 RLU, the “Maximum transfection efficiency, MW … CHOL” value was 66.096 RLU and the “Maximum transfection efficiency, MW … without” value was 4.049 RLU.
`CCCCCCCCCCCCCCCCCC[N+](C)(CCCCCCCCCCCCCCCCCC)[C@@H](CO)C(=O)NCCCN` [compound 34] was tested, and the “Maximum transfection efficiency, MW … DOPE” value was 5.085 RLU, the “Maximum transfection efficiency, MW … CHOL” value was 42.068 RLU and the “Maximum transfection efficiency, MW … without” value was 21.056 RLU.
In the case of `CCCCCCCCCCCCCCN(CCCCCCCCCCCCCC)[C@@H](CO)C(=O)NCCCCN` [compound 12], the “Maximum transfection efficiency, MW … DOPE” value is reported as 167.970 RLU, the “Maximum transfection efficiency, MW … CHOL” value is reported as 274.483 RLU and the “Maximum transfection efficiency, MW … without” value is reported as 440.931 RLU.
`CCCCCCCC/C=C\CCCCCCCC[N+](C)(CCCCCCCC/C=C\CCCCCCCC)[C@@H](CO)C(=O)NCCCN` [compound 35] was tested, and the “Maximum transfection efficiency, MW … DOPE” value was 43.284 RLU, the “Maximum transfection efficiency, MW … CHOL” value was 56.949 RLU and the “Maximum transfection efficiency, MW … without” value was 34.736 RLU.
In the case of `CCCCCCCCCCCCCC[N+](C)(CCCCCCCCCCCCCC)[C@@H](CO)C(=O)NCCCCN` [compound 37], the “Maximum transfection efficiency, MW … DOPE” value is reported as 63.765 RLU, the “Maximum transfection efficiency, MW … CHOL” value is reported as 148.560 RLU and the “Maximum transfection efficiency, MW … without” value is reported as 1.972 RLU.
For `CCCCCCCC/C=C\CCCCCCCCN(CCCCCCCC/C=C\CCCCCCCC)[C@@H](CO)C(=O)NCCN` [compound 5], the “Maximum transfection efficiency, MW … DOPE” value was 22.324 RLU, the “Maximum transfection efficiency, MW … CHOL” value was 7.344 RLU and the “Maximum transfection efficiency, MW … without” value was 7.395 RLU.
With `CCCCCCCCCCCCCCN(CCCCCCCCCCCCCC)[C@@H](CO)C(=O)NCCCN` [compound 7] the “Maximum transfection efficiency, MW … DOPE” value was 131.970 RLU, the “Maximum transfection efficiency, MW … CHOL” value was 464.342 RLU and the “Maximum transfection efficiency, MW … without” value was 217.062 RLU.
With `CCCCCCCCCCCCCCCC[N+](C)(CCCCCCCCCCCCCCCC)[C@@H](CO)C(=O)NCCCN` [MS-33] the “times higher activity in only one of the helper lipid combinations” value (best combination against the other combinations) was 2.5 - 11.5 times.
For `CCCCCCCC/C=C\CCCCCCCCN(CCCCCCCC/C=C\CCCCCCCC)[C@@H](CO)C(=O)NCCCCCN` [compound 20], the “Maximum transfection efficiency, MW … DOPE” value was 26.482 RLU, the “Maximum transfection efficiency, MW … CHOL” value was 67.308 RLU and the “Maximum transfection efficiency, MW … without” value was 31.897 RLU.
For `CCCCCCCCCCCCCC[N+](C)(CCCCCCCCCCCCCC)[C@@H](CO)C(=O)NCCN` [compound 27], the “Maximum transfection efficiency, MW … DOPE” value was 196.400 RLU, the “Maximum transfection efficiency, MW … CHOL” value was 311.891 RLU and the “Maximum transfection efficiency, MW … without” value was 21.934 RLU.
`CCCCCCCCCCCCCCCC[N+](C)(CCCCCCCCCCCCCCCC)[C@@H](CO)C(=O)NCCCCCN` [compound 43] was tested, and the “Maximum transfection efficiency, MW … DOPE” value was 169.621 RLU, the “Maximum transfection efficiency, MW … CHOL” value was 222.652 RLU and the “Maximum transfection efficiency, MW … without” value was 6.944 RLU.
